Measured values from patent US20240067672A1, “FLAVONE DERIVATIVE FOR TREATING TUMORS AND USE THEREOF” (SICHUAN FUSHENGYUAN TECHNOLOGY CO., LTD, priority 2019, published 2024).
In brackets after ≈: the same amount, converted by molar mass. Read-outs that look alike come from different tables or passages of the source.

Tests used:
[1] = test system: SMMC7721 hepatoma cells; assay: Anti-tumor activity in vitro, MTT method, SMMC7721; format: cell-based, human; conditions: for IC50 compared with Icaritin, SMMC7721 72 h: SMMC7721, 72 h after administration
Protocol: (§1) The effects of Icaritin and its derivatives on the activities of HepG2 and SMMC7721 hepatoma cells were investigated by a MTT method. […] After reaction for 48, 7 2 h, each well was added with 20 μL 5 mg/mL, of MTT solution, and incubated in a cell incubator for 3-4 h. Then the liquid in the well plates was sucked to discard. Each well was added with 150 μL of dimethyl sulfoxide (DMSO), and shaken on an enzyme-labeled instrument for 30 s at ambient temperature so that the Formazan crystals were dissolved sufficiently. The absorbance value A of each well at 570 nm was detected by the enzyme-labeled instrument, and the experiment was repeated for 3 times.

[2] = Determination of solubility (HPLC); format: physicochemical; conditions: for solubility: 37 °C, thermodynamic from solid
Protocol: About 1.325 mg of Icaritin and the synthesized derivative were weighed and dissolved in 1.5 mL methanol respectively, then diluted with methanol into solutions of 10, 20, 50, 100, 150, 200, 500 μg/mL, and filtered over an organic-system filter head of 0.45 μm into sample bottles, obtaining the samples for test. Four parts of Icaritin and the synthesized derivative were weighed respectively, 1.00 mg for each part, and placed into 1.5 mL EP tubes, and 1 mL of water, normal saline, PBS, and 0.1% Tween 80 were respectively added thereto. The obtained solutions were ultrasonicated for 1 h, placed in a water bath at 37° C. overnight, and centrifuged at 10000 r/min for 3 min to collect supernatants. The supernatants were taken into sample bottles and detected by HPLC. The experiments were conducted in parallel for three times. The detection of HPLC is conducted under conditions of a chromatographic column of waters Symmetry C18, a mobile phase of a solution of methanol and water with a ratio of 80:20, a flow rate of 1.0 mL/min, a column temperature of 30° C., a detection wavelength of 210 nm, a run time of 30 min, and a sample load of 20 μL.

[3] = test system: HepG2 hepatoma cells; assay: Anti-tumor activity in vitro, MTT method, HepG2; format: cell-based, human; conditions: for IC50 compared with Icaritin, HepG2 72 h: HepG2, 72 h after administration
Protocol: as §1

[4] = Homo sapiens, SMMC-7721, SMMC7721, 48 h, MTT, read-out: IC50 SMMC7721 48 h
[5] = Homo sapiens, SMMC-7721, SMMC7721, 72 h, MTT, read-out: IC50 SMMC7721 72 h
[6] = aqueous with cosolvent or surfactant or cyclodextrin
[7] = Homo sapiens, HepG2, 48 h, MTT, read-out: IC50 HepG2 48 h
[8] = Homo sapiens, HepG2, 72 h, MTT, read-out: IC50 HepG2 72 h

| IC50 [1, 4] [µM] | IC50 [1, 5] [µM] | solubility compared with that of the bulk drug (Icaritin) [2] | solubility ([2]; aqueous buffer) [µg/mL] | solubility [2, 6] [µg/mL] | solubility ([2]; saline or isotonic) [µg/mL] | solubility ([2]; water) [µg/mL] | IC50 [3, 7] [µM] | IC50 [3, 8] [µM] | Solubility, 0.1% Tween 80 [2] | Solubility, Normal Saline [2] | Solubility, PBS [2] | Solubility, Water [2] | SMILES | other results |
| --- | --- | --- | --- | --- | --- | --- | --- | --- | --- | --- | --- | --- | --- | --- |
| > 100 | > 100 | improved effectively | 12 ± 1.02 (≈ 16.8 µM) | 12.1 ± 1.03 (≈ 17 µM) | 12.3 ± 1.31 (≈ 17.3 µM) | 12 ± 1.23 (≈ 16.8 µM) | > 100 | > 100 | – | – | – | – | COc1ccc(-c2oc3c(CC=C(C)C)c(O)cc(O)c3c(=O)c2OC(=O)CCC(=O)OCc2cn([C@H]3O[C@@H](CO)[C@H](O)[C@@H](O)[C@@H]3O)nn2)cc1 [Compound 35] | – |
| – | – | improved effectively | – | – | – | – | – | – | 13.819 ± 1.323 µg/mL (≈ 18.3 µM) | 13.828 ± 1.123 µg/mL (≈ 18.3 µM) | 13.825 ± 0.937 µg/mL (≈ 18.3 µM) | 13.871 ± 1.031 µg/mL (≈ 18.4 µM) | COc1ccc(-c2oc3c(CC=C(C)C)c(O)cc(O)c3c(=O)c2OC(=O)CCC(=O)OCc2cn(CCOC3OC(CO)C(O)C(O)C3O)nn2)cc1 (centres unmarked) [Compound 39] | IC50 ([1]; SMMC7721, 48 h, MTT, read-out: IC50 SMMC7721 48 h): > 100 µM; IC50 ([1]; SMMC7721, 72 h, MTT, read-out: IC50 SMMC7721 72 h): 6.65 ± 1.29 µM; IC50 compared with Icaritin, SMMC7721 72 h [1]: less than that of Icaritin; IC50 ([3]; HepG2, 48 h, MTT, read-out: IC50 HepG2 48 h): > 100 µM; IC50 ([3]; HepG2, 72 h, MTT, read-out: IC50 HepG2 72 h): 5.56 ± 0.6 µM; IC50 compared with Icaritin, HepG2 72 h [3]: less than that of Icaritin |
| > 100 | > 100 | improved effectively | 11 ± 1.04 (≈ 13.8 µM) | 11.2 ± 1.09 (≈ 14 µM) | 11 ± 1.03 (≈ 13.8 µM) | 11.3 ± 0.831 (≈ 14.1 µM) | > 100 | 10.1 ± 0.32 | – | – | – | – | COc1ccc(-c2oc3c(CC=C(C)C)c(O)cc(O)c3c(=O)c2OC(=O)CCC(=O)OCc2cn(CCOCCO[C@H]3O[C@@H](CO)[C@H](O)[C@@H](O)[C@@H]3O)nn2)cc1 [Compound 44] | IC50 compared with Icaritin, HepG2 72 h [3]: less than that of Icaritin |
| > 100 | 46.5 ± 3.43 | – | 4.53 ± 0.347 (≈ 5.11 µM) | 4.64 ± 1.27 (≈ 5.22 µM) | – | 4.55 ± 0.324 (≈ 5.13 µM) | 24.1 ± 3.06 | 25.3 ± 2.11 | – | Insoluble | – | – | COc1ccc(-c2oc3c(CC=C(C)C)c(O)cc(O)c3c(=O)c2OC(=O)CCC(=O)OCCOCCOCCOCCOCc2cn([C@H]3O[C@@H](CO)[C@H](O)[C@@H](O)[C@@H]3O)nn2)cc1 [Compound 50] | – |
| > 100 | 2.51 ± 0.72 | – | 3.82 ± 0.874 (≈ 4.31 µM) | 3.89 ± 0.941 (≈ 4.38 µM) | 3.68 ± 0.947 (≈ 4.15 µM) | 3.64 ± 0.374 (≈ 4.1 µM) | 19.7 ± 0.52 | 20 ± 2.12 | – | – | – | – | COc1ccc(-c2oc3c(CC=C(C)C)c(O)cc(O)c3c(=O)c2OC(=O)CCC(=O)OCCOCCOCCOCc2cn(CCO[C@H]3O[C@@H](CO)[C@H](O)[C@@H](O)[C@@H]3O)nn2)cc1 [Compound 58] | IC50 compared with Icaritin, SMMC7721 72 h [1]: less than that of Icaritin |
| > 100 | > 100 | – | 0.991 ± 0.314 (≈ 1.24 µM) | 1.08 ± 0.756 (≈ 1.35 µM) | – | 2.24 ± 0.941 (≈ 2.8 µM) | > 100 | 32.6 ± 3.12 | – | Insoluble | – | – | COc1ccc(-c2oc3c(CC=C(C)C)c(O)cc(O)c3c(=O)c2OC(=O)CCC(=O)OCCOCCOCc2cn([C@H]3O[C@@H](CO)[C@H](O)[C@@H](O)[C@@H]3O)nn2)cc1 [Compound 64] | – |
| > 100 | > 100 | – | – | – | – | – | > 100 | 37.74 ± 0.2 | Insoluble | Insoluble | Insoluble | Insoluble | COc1ccc(-c2oc3c(CC=C(C)C)c(O)cc(O)c3c(=O)c2OC(=O)CCC(=O)OCCOCCOCc2cn(CCO[C@@H]3O[C@H](CO)[C@@H](O)[C@H](O)[C@H]3O)nn2)cc1 [Compound 65] | – |

| SMILES | IC50 [1, 4] [µM] | IC50 [1, 5] [µM] | solubility compared with that of the bulk drug (Icaritin) [2] | solubility ([2]; aqueous buffer) [µg/mL] | solubility [2, 6] [µg/mL] | solubility ([2]; saline or isotonic) [µg/mL] | solubility ([2]; water) [µg/mL] | IC50 [3, 7] [µM] | IC50 [3, 8] [µM] | Solubility, 0.1% Tween 80 [2] | Solubility, Normal Saline [2] | Solubility, PBS [2] | Solubility, Water [2] | other results |
| --- | --- | --- | --- | --- | --- | --- | --- | --- | --- | --- | --- | --- | --- | --- |
| COc1ccc(-c2oc3c(CC=C(C)C)c(O)cc(O)c3c(=O)c2OC(=O)CCC(=O)OCCOCc2cn(C3O[C@H](CO)[C@@H](O)[C@H](O)[C@H]3O)nn2)cc1 (some centres unmarked) [Compound 71] | – | – | – | – | – | – | – | – | – | Insoluble | Insoluble | Insoluble | Insoluble | IC50 ([1]; Homo sapiens, SMMC-7721, 48 h, read-out: IC50 SMMC7721 48 h): > 100 µM; IC50 ([1]; Homo sapiens, SMMC-7721, 72 h, read-out: IC50 SMMC7721 72 h): 29.7 ± 1.23 µM; IC50 ([3]; Homo sapiens, HepG2, 48 h, read-out: IC50 HepG2 48 h): > 100 µM; IC50 ([3]; Homo sapiens, HepG2, 72 h, read-out: IC50 HepG2 72 h): > 100 µM |
